Assay results from article PMC11945475, “Nasal Administration of a Nanoemulsion Based on Methyl Ferulate and Eugenol Encapsulated in Chitosan Oleate: Uptake Studies in the Central Nervous System” (Pharmaceutics, 2025).
Where two headings read alike, the source gives them in different places.

Legend:
[1] = Encapsulation efficiency (ultrafiltration method, HPLC); assay type: physicochemical; conditions: CS-OA NE, ultrafiltration 50K MWCO
Description: EE% was calculated by Equation (2):(2) EE%= total drug amount in CS-OA NE - drug amount in external phase/total drug amount in CS-OA NE × 100

RPMI 2650 cells = system: RPMI 2650 cells
Description: RPMI 2650 cells were used to evaluate in vitro the possible CS-OA NE cytotoxicity as well as Fer-Me and eugenol cell uptake.
RPMI 2650 cells were cultured on 75 cm^2 polystyrene cell culture flasks in Advanced Minimum Essential Medium (A-MEM), which was supplemented with 10% fetal bovine serum (FBS), 2 mM L-glutamine, 100 IU/mL penicillin, and 100 μg/mL streptomycin. The cells were maintained in a humidified atmosphere containing 5% CO2 at 37 °C. Cells were split twice using trypsin-EDTA at 37 °C before being seeded and allowed to grow to approximately 90% confluence for 3-(4,5-dimethylthiazol-2-yl)-2,5-diphenyltetrazolium (MTT) assays and uptake studies. Cell counting was performed using Scepter™ 2.0 handheld automated cell counter (Merck Millipore, Milan, Italy).
RPMI 2650 cells were seeded in a 12-well plate at a density of 8 × 10^4 cells/well containing 2 mL of culture A-MEM. […] The corresponding solution of pure compounds (approximated to 250 µM and 600 µM concentrations of Fer-Me and eugenol, respectively), and raw Fer-Me (corresponding to a 250 µM solution) added directly to the wells as powder, were used as comparison. In particular, 2 mL of diluted CS-OA NE or the corresponding solution of pure compounds was added to the test wells, and the plate was incubated for pre-determined interval times (10, 30, and 60 min) in a humidified 5% CO2 atmosphere at 37 °C. As for raw Fer-Me incubation, 0.1 mg was accurately weighed (analytical balance Sartorius CP 225D), added to each well containing 2 mL of complete A-MEM, and incubated at 37 °C in an orbital shaker for the same pre-determined interval times above indicated. All media were removed at the end of the incubation. […] After thawing, the lysate was centrifuged twice (16,000× g for 10 min) and the supernatant was immediately injected into the HPLC apparatus (20 μL) to quantify Fer-Me and eugenol (see below). The final number of cells was evaluated on untreated wells after their trypsinization and counted using the Scepter^TM 2.0 automated cell counter (Merck Millipore, Milan, Italy). Each reported value represents the mean of three independent incubation experiments expressed as nanomoles of compounds for 10^6 cells. The uptake efficiencies were calculated as the compound amount quantified in cell lysate 10 min after the onset of the incubation compared to the initial compound amount incubated in cell media (%). […]
The quantification of eugenol and Fer-Me was performed by using a modular HPLC system composed of a pump (model LC-40D), DAD detector (model SPD-M40, Shimadzu, Kyoto, Japan), as well as an injection valve with a 20 μL sample loop (model 7725; Rheodyne, IDEX, Torrance, CA, USA). […]

[2] = In vitro drug release from CS-OA NE (dialysis tubing); assay type: physicochemical; conditions: PBS pH 6.2, 32 °C
Description: The membrane was immersed in 50 mL of PBS (pH 6.2) at 32 ± 2 °C. The release medium was kept under constant magnetic stirring. Aliquots (1 mL) were withdrawn at predetermined intervals ranging from 15 min to 4 h and replaced with an equal volume of fresh PBS. The Fer-Me and eugenol released were quantified using the HPLC method.

[3] = male, Sprague-Dawley, rat, in vivo
Description: Fer-Me and eugenol were nasally co-administered as loaded in CS-OA NE to evaluate their concentration–time profiles in male Sprague-Dawley rats’ (200–250 g body weight; Charles River laboratories, Calco, Italy) bloodstream and CSF. The results were compared with those obtained by the rat intravenous administrations of Fer-Me (10 mg/kg; present study), and 20 mg/kg of eugenol. The sample size (4 rats/group) has been chosen based on our previous studies. The experimental procedures were approved by the Italian Ministry of Health and were performed in accordance with the European Communities Council Directive of September 2010 (2010/63/EU). According to the ARRIVE guidelines, all possible efforts were made to minimize animal pain and discomfort and to reduce the number of experimental subjects.

[4] = cited from earlier work

Structure (SMILES)	EE% (encapsulation efficiency) [1] [%]	uptake efficiency at 10 min (RPMI 2650 cells) [%]	in vitro release from CS-OA NE ([2]; 30 min) [%]	in vitro release from CS-OA NE ([2]; 240 min) [%]	dose-normalized CSF AUC of eugenol relative to Fer-Me [3]	intracellular amount (RPMI 2650 cells; human, 10 min, 600 µM) [nmol/10^6 cells]	uptake efficiency at 10 min (RPMI 2650 cells; human, 10 min, 600 µM) [%]	intracellular amount (RPMI 2650 cells; human, 60 min, 600 µM) [nmol/10^6 cells]	absolute bioavailability ([4]; eugenol oral administration)	AUC in CSF ([4]; rat, oral dose of 500 mg/kg of eugenol) [µg·min/mL]
COC(=O)/C=C/c1ccc(O)c(OC)c1 [Fer-Me, methyl ferulate]	90.2	0.80 ± 0.12	24.9	96.9						
C=CCc1ccc(O)c(OC)c1 [eugenol]	87.9		25.2	97.5	about 16 times	60.80 ± 5.09	0.77 ± 0.10	57.41 ± 2.80	about 4%	30.97 ± 2.18
